Reference: patent publication EP4741427A1, “GLYCAN, PREPARATION METHOD THEREFOR AND USE THEREOF, AND ANTI-TUMOR DRUG” (Peking University, priority 2023, dated 2025)

Legend:
Panc-1 cells [1] = test: Cell cycle, PI staining with flow cytometry; format: cell-based; settings: 72 h
Procedure: Pancreatic cancer Panc-1 cells were seeded into 24-well plates at a density of 6×10^4 cells/well. After the cells adhered, different concentrations of compound 2-34 (25 µM, 50 µM, 100 µM) were added and co-incubated for 72 h. All cells were collected, washed 2 times with PBS, and fixated in 70% (volume fraction) ethanol overnight. The fixated cells were collected, washed 2 times with PBS, and stained with PI staining solution containing RNase (ribonuclease) in the dark for 30 min. The nucleic acid content in the cells was detected by using a flow cytometer, and the percentage of cells in each cycle phase was analyzed by using ModFit software.

Panc-1 = test: CCK-8 proliferation inhibition of pancreatic cancer cells; format: cell-based; settings: 72 h
Text: (§1) Three pancreatic cancer cell lines (Aspc-1, Bxpc-3, Panc-1) and the hepatocyte cell line LO2 used in the experiments were provided by Peking University People's Hospital and the Institute of Materia Medica, Chinese Academy of Medical Sciences. The culture conditions for Aspc-1 and Bxpc-3 cells were RPMI 1640 medium (Gibco, Thermo Fisher Scientific, USA) supplemented with 10% fetal bovine serum (HyClone, Thermo Fisher Scientific, USA) and 1% penicillin/streptomycin (Life Technologies, Thermo Fisher Scientific, USA). The culture conditions for Panc-1 and LO2 cells were DMEM medium (Gibco, Thermo Fisher Scientific, USA) supplemented with 10% fetal bovine serum (HyClone, Thermo Fisher Scientific, USA) and 1% penicillin/streptomycin (Life Technologies, Thermo Fisher Scientific, USA). Cell culture was conducted at 37°C with adequate humidity and 5% CO2 concentration.
(§2) Three types of pancreatic cancer cells (Aspc-1, Bxpc-3, Panc-1) were seeded into 96-well plates at a density of 5×10^3 cells/well (100 µL). After the cells adhered, gemcitabine (50 µM), compound 2-11 (140-mer 2-11, 50 µM), 2-30 (70-mer 2-30, 50 µM), 2-31 (40-mer 2-31, 50 µM), 2-32 (30-mer 2-32, 50 µM), 2-33 (10-mer A 2-33, 50 µM), 2-34 (10-mer B 2-34, 50 µM), 2-35 (5-mer A 2-35, 50 µM), 2-36 (5-mer B 2-36, 50 µM), and 2-37 (5-mer C 2-37, 50 µM) were added, respectively. The cells were co-incubated for 72 h. Then, 10 µL of CCK-8 reagent was added to each well and incubated at 37°C for 2 h. After thorough mixing, the absorbance at 450 nm was measured by using a microplate reader. A cell survival rate was calculated by using the following formula: Cell survival rate(%) = (ODsample−OD_blank)/(OD_control−OD_blank) × 100%. [formula]
(§3) Three types of pancreatic cancer cells (Aspc-1, Bxpc-3, and Panc-1) were seeded into 96-well plates at a density of 5×10^3 cells/well (100 µL). After the cells adhered, different concentrations of compound 2-34 (3.125 µM, 6.25 µM, 12.5 µM, 25 µM, 50 µM, 100 µM) were added. The cells were co-incubated for 72 h. Then, 10 µL of CCK-8 reagent was added to each well and incubated at 37°C for 2 h. After thorough mixing, the absorbance at 450 nm was measured by using a microplate reader, and the cell survival rate was calculated.

Aspc-1 = test: as above; format: cell-based; settings: 72 h
Text: as §1, §2, §3

Bxpc-3 = test: as above; format: cell-based; settings: 72 h
Text: as §1, §2, §3

LO2 hepatocytes = test: CCK-8 cytotoxicity on hepatocytes; format: cell-based, human; settings: concentration up to 100 µM, 72 h
Text: as §1
LO2 hepatocytes were seeded into 96-well plates at a density of 5×10^3 cells/well (100 µL). After the cells adhered, different concentrations of compound 2-34 (3.125 µM, 6.25 µM, 12.5 µM, 25 µM, 50 µM, 100 µM) and the positive control drug gemcitabine (3.125 µM, 6.25 µM, 12.5 µM, 25 µM, 50 µM, 100 µM) were added, respectively. The cells were co-incubated for 72 h. […] After thorough mixing, the absorbance at 450 nm was measured by using a microplate reader, and the cell survival rate was calculated.

Panc-1 cells [2] = test: Apoptosis, Annexin V-FITC/PI double staining with flow cytometry; format: cell-based; settings: 72 h
Procedure: Pancreatic cancer Panc-1 cells were seeded into 24-well plates at a density of 3×10^4 cells/well. After the cells adhered, different concentrations of compound 2-34 (25 µM, 50 µM, 100 µM) were added and co-incubated for 72 h. All cells were collected, washed 2 times with PBS, and resuspended in binding buffer (Beyotime, Shanghai, China). Then, 5 µL of Annexin V-FITC (fluorescein isothiocyanate) and 10 µL of PI (propidium iodide) dye were added in sequence, and the cells were stained in the dark for 20 min. The apoptosis rate was detected by using a flow cytometer (Beckman CytoFLEX), and the specific apoptosis ratio was analyzed by using CytoFLEX software.

Compound	number of cells in the G2 phase (Panc-1 cells [1]; Panc-1, 25 µM, 50 µM, 100 µM)	proportion of cells in the G1 phase (Panc-1 cells [1]; Panc-1, 25 µM) [%]	proportion of cells in the S phase (Panc-1 cells [1]; Panc-1, 25 µM) [%]	proportion of cells in the G1 phase (Panc-1 cells [1]; Panc-1, 50 µM) [%]	proportion of cells in the S phase (Panc-1 cells [1]; Panc-1, 50 µM) [%]	proportion of cells in the G1 phase (Panc-1 cells [1]; Panc-1, 100 µM) [%]	proportion of cells in the S phase (Panc-1 cells [1]; Panc-1, 100 µM) [%]	inhibition rates (Panc-1; Panc-1, 50 µM) [%]	proliferation inhibition, concentration dependence (Panc-1; Panc-1, 3.125-100 µM)	inhibition rates (Aspc-1; Aspc-1, 50 µM) [%]	proliferation inhibition, concentration dependence (Aspc-1; Aspc-1, 3.125-100 µM)	inhibition rates (Bxpc-3; Bxpc-3, 50 µM) [%]	proliferation inhibition, concentration dependence (Bxpc-3; Bxpc-3, 3.125-100 µM)	cytotoxicity towards the growth of LO2 hepatocytes (LO2 hepatocytes)	apoptosis rate (Panc-1 cells [2]; Panc-1, 25 µM) [%]	apoptosis rate (Panc-1 cells [2]; Panc-1, 50 µM) [%]	apoptosis rate (Panc-1 cells [2]; Panc-1, 100 µM) [%]	inhibition at 50 µM (Panc-1; Homo sapiens, Panc-1, 50 µM, read-out: inhibition rates) [%]	inhibition at 50 µM (Aspc-1; Homo sapiens, ASPC1, Aspc-1, 50 µM, read-out: inhibition rates) [%]
Octylβ-D-galactopyranosyl-(1→6)-β-D-galactopyranosyl-(1→6)-β-D-galactopyranosyl-( 1→6)-{α-L-arabinofuranosyl-(1→5)-α-L-arabinofuranosyl-(1→5)-α-L-arabinofuransyl-(1→5)-[ β-D-galactopyranosyl-(1→3)]-α-L-arabinofuranosyl-(1→3)-β-D-galactopyranosyl-(1→3)}-β-D-galactopyranoside [compound 2-34]	remains relatively stable with minor changes	51.33	22.19	46.99	27.66	42.43	36.29	72.1	significant concentration dependence	74.9	significant concentration dependence	29.5	significant concentration dependence	no cytotoxicity	31.99	31.92	67.59		
Nc1ccn([C@@H]2O[C@H](CO)[C@@H](O)C2(F)F)c(=O)n1 [gemcitabine, reference compound]																		23.2	61.4
